We go through three molecules from ChEMBL document CHEMBL5726133, “Dihydropyrrolopyridine inhibitors of ROR-gamma” (2017).

For this experiment, the target named is T1, Nuclear receptor ROR-gamma (Homo sapiens, UniProt P51449).
T1 sequence (P51449 whole entry): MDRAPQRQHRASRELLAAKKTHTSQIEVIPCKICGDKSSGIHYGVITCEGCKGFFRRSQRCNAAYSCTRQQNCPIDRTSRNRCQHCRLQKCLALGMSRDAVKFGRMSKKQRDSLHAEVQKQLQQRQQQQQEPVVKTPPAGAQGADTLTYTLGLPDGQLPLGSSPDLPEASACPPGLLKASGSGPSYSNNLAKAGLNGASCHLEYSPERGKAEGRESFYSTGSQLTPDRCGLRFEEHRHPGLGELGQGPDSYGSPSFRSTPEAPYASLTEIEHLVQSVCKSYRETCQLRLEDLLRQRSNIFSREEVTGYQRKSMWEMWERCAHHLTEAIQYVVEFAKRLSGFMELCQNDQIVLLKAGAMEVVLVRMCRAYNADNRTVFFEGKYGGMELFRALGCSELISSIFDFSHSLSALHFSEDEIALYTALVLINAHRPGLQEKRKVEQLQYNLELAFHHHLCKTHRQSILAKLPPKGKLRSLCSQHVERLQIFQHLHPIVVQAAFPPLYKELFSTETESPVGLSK
Nature of the experiment: Binding Assay: Compounds of the present invention were tested for ability to bind to RORγ in a cell-free competition assay with commercially available radio-ligand (RL), 25-hydroxy [26,27-3H]-cholesterol (PerkinElmer, Cat. #NET674250UC), for a ligand binding site on a recombinant RORγ Ligand Binding Domain (LBD) protein expressed as a 6×His-Glutathione-S-Transferase (GST) fusion. […] The plate was shaken at 700 rpm for 20 min and incubated for 10 min at rt, after which 40 μL of poly-Lys YSi SPA beads (PerkinElmer, Cat. #RPNQ0010) were added to achieve 50 μg of the beads per well. The plate was incubated on an orbital shaker for 20 min and then for 10 min without agitation at rt. SPA signal for tritium beta radiation was registered on PerkinElmer Microbeta plate reader.
As a reminder, the Ki is the dissociation constant of the complex between target and ligand, obtained from inhibition or displacement. As to `CCS(=O)(=O)c1ccc(CNC(=O)c2cnc3c(c2)C(=O)N(Cc2ccc(Cl)cc2)[C@H]3C(C)C)cc1`, the Ki was below 100 nM.
For `CCS(=O)(=O)c1ccc(C2(NC(=O)c3cnc4c(c3)CN(Cc3ccc(C(F)(F)F)cc3)[C@H]4C(C)C)CC2)nc1` the value was below 100 nM; for `CCS(=O)(=O)c1ccc(CC(=O)Nc2cnc3c(c2)CN(Cc2ccc(Cl)cc2)[C@H]3C(C)C)cc1`, below 100 nM.
